ChEMBL document CHEMBL1201862, “PubChem BioAssay data set” (2004)
Calls of active or inactive are those of the source.

Key:
[1] = NIH-3T3 fibroblast cytotoxicity, dose response, cytotoxicity control, cell-based, fluorescence, Alamar Blue, secondary assay (AID 2327); type: functional;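 also: NIH-3T3 mouse fibroblasts cultured with fluconazole at 8 µg/mL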
[2] = biological target: T1, Heat shock factor protein 1 (Mus musculus, UniProt P38532); experiment: decrease of HSF1-responsive luciferase luminescence – cell-based, NIH3T3, dose retest, confirmation (AID 2382); type: functional;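 also: NIH3T3 fibroblasts with HSF1-driven luciferase reporter stressed by proteasome inhibitor MG132; luminescence from HSF1-driven luciferase expression after 8 hours of MG132 stress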
T1 sequence (P38532 whole entry): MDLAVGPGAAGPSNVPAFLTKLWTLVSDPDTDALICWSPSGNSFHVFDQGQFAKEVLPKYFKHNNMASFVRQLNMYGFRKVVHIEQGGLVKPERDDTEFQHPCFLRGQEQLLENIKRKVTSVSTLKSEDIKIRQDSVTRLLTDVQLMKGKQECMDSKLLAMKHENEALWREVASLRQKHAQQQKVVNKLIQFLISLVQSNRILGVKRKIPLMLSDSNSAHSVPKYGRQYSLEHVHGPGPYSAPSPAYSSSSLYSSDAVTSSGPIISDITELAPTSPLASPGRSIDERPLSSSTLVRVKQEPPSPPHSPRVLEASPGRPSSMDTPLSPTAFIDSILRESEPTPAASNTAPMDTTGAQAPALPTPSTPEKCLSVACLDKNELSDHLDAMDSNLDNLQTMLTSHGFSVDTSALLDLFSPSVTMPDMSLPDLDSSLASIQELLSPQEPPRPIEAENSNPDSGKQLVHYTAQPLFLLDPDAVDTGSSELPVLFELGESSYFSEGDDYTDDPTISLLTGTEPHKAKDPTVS

[3] = fluconazole-exposed Candida albicans growth modulators – fluorescence, retest, confirmation (AID 2467); type: functional, cell-based
[4] = viability of PTEN-deleted HCT116 cells – cell-based, HCT116 PTEN knockout, dose response (AID 1047); type: functional;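 also: HCT116 colon tumor cells with PTEN knocked out; cells exposed to compound for 60 hours before readout; potency for loss of cell viability measured by luminescence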
[5] = viability of HCT116 lacking mutant beta-catenin – cell-based, human colon tumor, dose response (AID 1045); type: functional;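 also: HCT116 colon tumor cells with beta catenin knocked out; cells exposed to compound for 60 hours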
[6] = THP-1 cell cytotoxicity, dose response, cytotoxicity control for non-replicating M. tuberculosis project (AID 489025); type: functional
[7] = Vero E6 cell cytotoxicity, dose response, cytotoxicity control for non-replicating M. tuberculosis project, secondary assay (AID 492998); type: functional, VeroE6; details: Vero C1008
cells = type: functional
Vero = experiment: cells; type: functional; details: Chlorocebus sabaeus
[8] = A Cell Based Secondary Assay To Explore Cytotoxicity of Compounds that Sensitize Mycobacterium Tuberculosis to Beta-Lactam Antibiotics.; type: functional
[9] = HEK-293T viability loss after treatment – luminescence, T-cell screen hits, cytotoxicity control for TCR NF-kB inhibitor project, dose response (AID 489026); type: functional, cell-based;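 also: cells exposed to compound about 14 hours before the viability readout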
[10] = tested on: Streptococcus sp. 'group A'; experiment: Streptococcus pyogenes SK(-)GAS viability under kanamycin – luminescence, BacTiterGlo, confirmation, counter-screen for streptokinase expression inhibitor project, dose response (AID 1900); type: functional, organism-based
Streptococcus = experiment: GAS UMAA2166 growth inhibition – luminescence, BacTiterGlo, counter-screen for streptokinase expression inhibitor project, dose response (AID 1915); type: functional, organism-based;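 also: potency for reduction of bacterial viability or growth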
BJ [11] = experiment: BJ-TERT fibroblast viability loss – cell-based, RAS-independent, luminescence, dose response (AID 1933); type: functional; details: Homo sapiens
BJ [12] = experiment: cells; type: functional, cell-based; details: Homo sapiens
BJ [13] = experiment: BJ-TERT-LT-ST fibroblast viability loss – cell-based, RAS-independent, luminescence, dose response (AID 1935); type: functional; details: Homo sapiens;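 also: BJ fibroblasts immortalized with TERT plus LT and ST oncogenes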
[14] = DRD fibroblast viability loss – cell-based, non-viral oncogenic, luminescence, dose response (AID 1934); type: functional; details: Homo sapiens
[15] = HEK-293T cell viability reduction – luminescence, B-cell screen hits, cytotoxicity control for BCR NF-kB inhibitor project, dose response (AID 489021); type: functional, cell-based;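 also: HEK-293T cells carrying an NF-kB luciferase reporter; cells exposed to compound for about 14 hours before viability readout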
Large T antigen = Large T antigen (Simian virus 40, UniProt P03070); type: functional, Betapolyomavirus macacae;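 also: Confirmatory-stage PubChem screen for compounds that inhibit SV40 T antigen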
Estrogen receptor = biological target: T2, Estrogen receptor (Homo sapiens, UniProt P03372);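 also: potency for inhibiting coactivator peptide recruitment to the receptor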
T2 sequence (P03372 whole entry): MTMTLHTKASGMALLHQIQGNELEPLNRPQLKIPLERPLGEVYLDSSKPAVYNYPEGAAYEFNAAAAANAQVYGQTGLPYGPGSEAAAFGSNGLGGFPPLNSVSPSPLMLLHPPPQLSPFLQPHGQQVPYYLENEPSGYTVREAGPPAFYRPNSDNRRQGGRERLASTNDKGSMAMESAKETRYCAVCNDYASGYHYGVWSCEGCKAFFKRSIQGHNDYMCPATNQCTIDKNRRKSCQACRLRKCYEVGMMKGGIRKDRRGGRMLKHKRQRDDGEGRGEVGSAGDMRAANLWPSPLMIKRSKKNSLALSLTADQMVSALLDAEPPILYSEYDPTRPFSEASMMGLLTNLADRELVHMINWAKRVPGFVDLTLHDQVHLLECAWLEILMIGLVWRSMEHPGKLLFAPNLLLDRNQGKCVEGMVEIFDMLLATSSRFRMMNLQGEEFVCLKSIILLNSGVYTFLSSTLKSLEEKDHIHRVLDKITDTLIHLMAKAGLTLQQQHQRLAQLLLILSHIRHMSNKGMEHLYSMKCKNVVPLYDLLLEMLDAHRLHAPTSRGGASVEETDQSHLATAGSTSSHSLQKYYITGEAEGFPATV

Estrogen receptor beta = Estrogen receptor beta (Homo sapiens, UniProt Q92731);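 also: recombinant ER-beta bound to coactivator SRC1 peptide in presence of estradiol agonist; inhibitors block coactivator peptide binding and lower the FRET signal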
Estrogen receptor beta, sequence (Q92731 whole entry): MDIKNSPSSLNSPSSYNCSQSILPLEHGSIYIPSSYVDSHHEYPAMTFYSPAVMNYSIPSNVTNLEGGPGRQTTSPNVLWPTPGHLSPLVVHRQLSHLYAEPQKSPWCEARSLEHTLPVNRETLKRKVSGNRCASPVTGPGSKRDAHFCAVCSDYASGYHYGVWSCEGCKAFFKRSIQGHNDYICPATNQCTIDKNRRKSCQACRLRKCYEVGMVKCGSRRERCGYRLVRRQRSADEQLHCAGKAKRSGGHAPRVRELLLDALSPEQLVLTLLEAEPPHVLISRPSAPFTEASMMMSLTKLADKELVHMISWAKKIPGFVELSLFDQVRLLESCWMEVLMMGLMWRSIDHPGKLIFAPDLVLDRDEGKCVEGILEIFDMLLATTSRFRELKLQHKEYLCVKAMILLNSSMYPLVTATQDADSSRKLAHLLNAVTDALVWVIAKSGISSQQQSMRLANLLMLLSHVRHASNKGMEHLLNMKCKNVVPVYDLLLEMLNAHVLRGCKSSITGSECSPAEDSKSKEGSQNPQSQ

Large T antigen, sequence (P03070 whole entry): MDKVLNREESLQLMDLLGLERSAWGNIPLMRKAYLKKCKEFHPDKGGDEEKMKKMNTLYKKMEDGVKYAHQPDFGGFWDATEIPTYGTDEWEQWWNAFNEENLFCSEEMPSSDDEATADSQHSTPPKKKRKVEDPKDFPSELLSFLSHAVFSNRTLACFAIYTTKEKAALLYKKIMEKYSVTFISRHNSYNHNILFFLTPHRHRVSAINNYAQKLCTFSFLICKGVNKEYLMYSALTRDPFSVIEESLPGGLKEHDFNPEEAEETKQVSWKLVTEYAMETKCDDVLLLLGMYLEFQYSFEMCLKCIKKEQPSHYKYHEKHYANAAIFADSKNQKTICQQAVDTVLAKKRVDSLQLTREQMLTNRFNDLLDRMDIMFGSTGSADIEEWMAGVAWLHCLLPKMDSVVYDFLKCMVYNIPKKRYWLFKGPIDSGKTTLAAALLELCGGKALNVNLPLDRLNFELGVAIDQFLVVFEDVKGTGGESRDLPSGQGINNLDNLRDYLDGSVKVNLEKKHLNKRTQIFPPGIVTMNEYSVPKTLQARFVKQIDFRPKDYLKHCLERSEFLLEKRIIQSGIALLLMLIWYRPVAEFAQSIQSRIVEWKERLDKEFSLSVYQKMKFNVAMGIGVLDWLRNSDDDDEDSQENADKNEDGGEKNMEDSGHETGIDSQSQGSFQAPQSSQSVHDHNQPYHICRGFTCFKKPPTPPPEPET

O=C1Nc2ccccc2/C1=C/C(=O)c1cccs1
EC50 [1]: > 150 µM (inactive)
EC50 [2]: > 195 µM (not active)
EC50 [3]: 1.75 µM (active)
EC50 [4]: 7.47 µM (active)
EC50 [5]: 5.7 µM (active)
CC50 [6]: 21.1 µM (active)
CC50 [7]: 14.4 µM (active)
IC50 (cells): 8.52 µM (active)
CC50 (Vero): 17.6 µM (active)

CCOC(=O)c1cc(-c2ccc(C)cc2)n(CCC(=O)N2CCN(c3ccccn3)CC2)c1C
CC50 [8]: > 40 µM (active)

COc1ccccc1CNS(=O)(=O)c1ccc(-c2cnc(C3CC3)o2)cc1
IC50 [9]: > 80 µM (inactive)

CC(C)(C)c1ccc(C(=O)Nc2nnc(C3=COCCO3)o2)cc1
EC50 [10]: 0.429 µM (active)
EC50 (Streptococcus): 9.1 µM (active)
CC50 [6]: 34.2 µM (active)
CC50 [7]: > 20 µM (active)
IC50 (cells): 2.11 µM (active)

COc1ccccc1CNS(=O)(=O)c1ccc(-c2cc(C)no2)cc1
EC50 (BJ [11]): 1.92 µM (active)
EC50 (BJ [12]): 53.8 µM (inconclusive)
EC50 (BJ [13]): 0.83 µM (active)
EC50 [14]: 1.34 µM (active)
IC50 [9]: 79.8 µM (inactive)

Cc1cc(C)cc(OCc2nnc(SCC(=O)c3ccccc3)o2)c1
IC50 [15]: > 80 µM (inactive)

Oc1ccc(/C=N/c2ccc(N3CCOCC3)cc2)c(O)c1
IC50 (Large T antigen): 12.9 µM (active)
IC50 (Estrogen receptor): 30.4 µM (not active)
IC50 (Estrogen receptor beta): 14.4 µM (active)

COc1cc2c(=O)n(Cc3ccco3)c(=O)n(CC(=O)c3cccc(Br)c3)c2cc1OC
CC50 [8]: 22.2 µM (active)
EC50 [4]: 9.13 µM (active)
EC50 [5]: 9.71 µM (active)
